Data taken from the supplement of paper PMC5908809.

What was measured:
[1] = test system: normal NK cells expanded with K562-aAPC; assay: percent inhibition of viability; higher = more inhibition; details: 72 h, IL-2 2.5 ng/mL
Method: (§1)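 Drug sensitivity and resistance testing on K562-aAPC-expanded normal NK cells: 5 concentrations (10-fold steps over a 10,000-fold range), 72 h at 37 °C, viability by CellTiter-Glo normalised to DMSO and benzethonium chloride controls; DSS from the fitted curve.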

DERL-7 (IL-2 2.5 ng/mL) [2] = assay: as above; details: 72 h
IMC-1 (IL-2 20 ng/mL) [3] = assay: as above; details: 72 h
KAI3 (IL-2 2.5 ng/mL) [4] = assay: as above; details: 72 h
KHYG-1 (IL-2 2.5 ng/mL) [5] = assay: as above; details: 72 h
NK-92 (IL-2 2.5 ng/mL) [6] = assay: as above; details: 72 h
NK-YS (IL-2 2.5 ng/mL) [7] = assay: as above; details: 72 h
NKL (IL-2 2.5 ng/mL) [8] = assay: as above; details: 72 h
SNK-6 (IL-2 2.5 ng/mL) [9] = assay: as above; details: 72 h
YT (IL-2 2.5 ng/mL) [10] = assay: as above; details: 72 h
[11] = test system: normal primary NK cells, pool 1 (3 donors) (IL-2 2.5 ng/mL); assay: as above; details: 72 h
[12] = test system: normal primary NK cells, pool 1 (3 donors), resting (IL-2 0 ng/mL); assay: as above; details: 72 h
[13] = test system: normal primary NK cells, pool 2 (3 donors) (IL-2 2.5 ng/mL); assay: as above; details: 72 h
[14] = test system: normal primary NK cells, pool 3 (3 donors) (IL-2 2.5 ng/mL); assay: as above; details: 72 h
[15] = test system: normal NK cells expanded with K562-aAPC; assay: drug sensitivity score (DSS) (DSS units); higher = more sensitive; extreme values may be limits of the assay; details: 72 h; IL-2 2.5 ng/mL
Method: as §1

DERL-7 (IL-2 2.5 ng/mL) [16] = assay: as above; details: 72 h
IMC-1 (IL-2 20 ng/mL) [17] = assay: as above; details: 72 h
KAI3 (IL-2 2.5 ng/mL) [18] = assay: as above; details: 72 h
KHYG-1 (IL-2 2.5 ng/mL) [19] = assay: as above; details: 72 h
NK-92 (IL-2 2.5 ng/mL) [20] = assay: as above; details: 72 h
NK-YS (IL-2 2.5 ng/mL) [21] = assay: as above; details: 72 h
NKL (IL-2 2.5 ng/mL) [22] = assay: as above; details: 72 h
SNK-6 (IL-2 2.5 ng/mL) [23] = assay: as above; details: 72 h
YT (IL-2 2.5 ng/mL) [24] = assay: as above; details: 72 h
[25] = test system: normal primary NK cells, pool 1 (3 donors) (IL-2 2.5 ng/mL); assay: as above; details: 72 h
[26] = test system: normal primary NK cells, pool 1 (3 donors), resting (IL-2 0 ng/mL); assay: as above; details: 72 h
[27] = test system: normal primary NK cells, pool 2 (3 donors) (IL-2 2.5 ng/mL); assay: as above; details: 72 h
[28] = test system: normal primary NK cells, pool 3 (3 donors) (IL-2 2.5 ng/mL); assay: as above; details: 72 h

C#Cc1cccc(Nc2ncnc3cc(OC)c(OCCCCCCC(=O)NO)cc23)c1 [CUDC-101] (max concentration tested 10000 nM)
percent inhibition of viability [%]
Details	1 nM	10 nM	100 nM	1000 nM	10000 nM
DERL-7 (IL-2 2.5 ng/mL) [2]	-3.07	-2.96	19.3	100	101
IMC-1 (IL-2 20 ng/mL) [3]	-4.07	-5.13	-1.06	48.9	101
KAI3 (IL-2 2.5 ng/mL) [4]	-3.15	0.88	27.8	77.2	105
KHYG-1 (IL-2 2.5 ng/mL) [5]	1.82	3.01	36.4	99.1	106
NK-92 (IL-2 2.5 ng/mL) [6]	9.73	-1.07	19.2	85.7	105
NK-YS (IL-2 2.5 ng/mL) [7]	-4.37	0.36	0.68	57.3	105
NKL (IL-2 2.5 ng/mL) [8]	-15.6	-12.1	1.83	90.5	108
SNK-6 (IL-2 2.5 ng/mL) [9]	11.7	10.8	24.7	78.1	100
YT (IL-2 2.5 ng/mL) [10]	0.23	0.94	9.37	95.4	106
[1]	-2.26	1.39	1.83	75.4	101
[11]	-3.28	-4.06	12.8	88.8	98.8
[12]	10.4	0.86	30.2	78.6	92.4
[13]	-9.31	-5.49	9.37	84.5	97
[14]	-12	1.9	2.2	82.8	99.5

Details	drug sensitivity score
DERL-7 (IL-2 2.5 ng/mL) [16]	21.1
IMC-1 (IL-2 20 ng/mL) [17]	11.6
KAI3 (IL-2 2.5 ng/mL) [18]	17.9
KHYG-1 (IL-2 2.5 ng/mL) [19]	22.6
NK-92 (IL-2 2.5 ng/mL) [20]	18.1
NK-YS (IL-2 2.5 ng/mL) [21]	12.4
NKL (IL-2 2.5 ng/mL) [22]	16.5
SNK-6 (IL-2 2.5 ng/mL) [23]	17.6
YT (IL-2 2.5 ng/mL) [24]	18.8
[15]	14.3
[25]	17.9
[26]	18.1
[27]	16.7
[28]	15.3

O=C1CN2Cc3c(ccc(Cl)c3Cl)N=C2N1 [Anagrelide] (max concentration tested 10000 nM)
percent inhibition of viability [%]
Details	1 nM	10 nM	100 nM	1000 nM	10000 nM
DERL-7 (IL-2 2.5 ng/mL) [2]	0.58	-15.8	5.22	-2.15	-3.54
IMC-1 (IL-2 20 ng/mL) [3]	-2	-2.1	0.73	-7.98	0.69
KAI3 (IL-2 2.5 ng/mL) [4]	-3.01	-16.8	2.67	7.81	26.7
KHYG-1 (IL-2 2.5 ng/mL) [5]	-5.21	-5.67	-5.27	2.55	2.12
NK-92 (IL-2 2.5 ng/mL) [6]	-16.3	-4.98	5.49	11	18.2
NK-YS (IL-2 2.5 ng/mL) [7]	-1.23	-6.42	0.98	-1.47	9.94
NKL (IL-2 2.5 ng/mL) [8]	-8	-3.63	5.32	5.47	9.73
SNK-6 (IL-2 2.5 ng/mL) [9]	-14.4	-27.6	-25	10.6	16.6
YT (IL-2 2.5 ng/mL) [10]	-4.72	-11.3	-2.78	-6.4	13
[1]	-10.7	-8.47	-7.13	1.09	4.94
[11]	-7.17	12.1	9.62	3.68	6.66
[12]	-14.4	8.37	10.8	4.74	9.32
[13]	-5.09	5.68	10.3	2.48	5.2
[14]	-7.45	-4.06	-2.15	-4.72	-5.66

Details	drug sensitivity score
DERL-7 (IL-2 2.5 ng/mL) [16]	0
IMC-1 (IL-2 20 ng/mL) [17]	0
KAI3 (IL-2 2.5 ng/mL) [18]	2.01
KHYG-1 (IL-2 2.5 ng/mL) [19]	0
NK-92 (IL-2 2.5 ng/mL) [20]	1.23
NK-YS (IL-2 2.5 ng/mL) [21]	0
NKL (IL-2 2.5 ng/mL) [22]	0
SNK-6 (IL-2 2.5 ng/mL) [23]	1.18
YT (IL-2 2.5 ng/mL) [24]	0.03
[15]	0
[25]	0
[26]	0.58
[27]	0
[28]	0

C=CCNC1=C2C[C@@H](C)C[C@H](OC)[C@H](O)[C@@H](C)/C=C(\C)[C@H](OC(N)=O)[C@@H](OC)/C=C\C=C(/C)C(=O)NC(=CC1=O)C2=O [Tanespimycin] (max concentration tested 10000 nM)
percent inhibition of viability [%]
Details	1 nM	10 nM	100 nM	1000 nM	10000 nM
DERL-7 (IL-2 2.5 ng/mL) [2]	0.9	-1.85	35.9	101	101
IMC-1 (IL-2 20 ng/mL) [3]	-1.67	0.76	3.61	99.8	101
KAI3 (IL-2 2.5 ng/mL) [4]	0.55	5.14	60.9	104	105
KHYG-1 (IL-2 2.5 ng/mL) [5]	-4.47	0.32	7.33	103	106
NK-92 (IL-2 2.5 ng/mL) [6]	-11.8	-0.27	37.7	99.1	100
NK-YS (IL-2 2.5 ng/mL) [7]	-3.46	-0.46	63.4	103	105
NKL (IL-2 2.5 ng/mL) [8]	-8.98	-11.1	73.2	91.9	91.2
SNK-6 (IL-2 2.5 ng/mL) [9]	3.74	-19.1	41.6	87.7	89.8
YT (IL-2 2.5 ng/mL) [10]	-5.76	-8.38	13.2	94.7	101
[1]	-6.12	-2.4	32.3	99.3	100
[11]	1.58	12.9	49.5	87.4	92.3
[12]	-6.62	18.1	28.8	51.2	69.4
[13]	-2.56	2.25	36.4	80	85.7
[14]	-2.89	-1.44	15.4	76.7	89.1

Details	drug sensitivity score
DERL-7 (IL-2 2.5 ng/mL) [16]	23
IMC-1 (IL-2 20 ng/mL) [17]	18.4
KAI3 (IL-2 2.5 ng/mL) [18]	25.3
KHYG-1 (IL-2 2.5 ng/mL) [19]	19.3
NK-92 (IL-2 2.5 ng/mL) [20]	23.1
NK-YS (IL-2 2.5 ng/mL) [21]	25.4
NKL (IL-2 2.5 ng/mL) [22]	25
SNK-6 (IL-2 2.5 ng/mL) [23]	21.6
YT (IL-2 2.5 ng/mL) [24]	19.1
[15]	22.6
[25]	22.4
[26]	14
[27]	19.2
[28]	16
